Experimental data taken from patent publication US10717762B2, “Abiraterone derivative and formulations thereof” (Zhuhai Beihai Biotech Co., Ltd., priority 2016, dated 2020).
Like-named read-outs stand apart in the source and are kept apart here.

Experiments:
[1] = Solubility in water (description); assay type: physicochemical; details: ABOA, white to off-white solid
[2] = product insert (Zytiga Full Prescribing Information, Section 11); cited from earlier work
[3] = cited from earlier work
CYP3A4 liver enzyme = CYP3A4 liver enzyme (Homo sapiens, UniProt P08684); details: Zytiga Full Prescribing Information, Section 7.2; cited from earlier work
Chain of CYP3A4 liver enzyme (P08684 whole entry): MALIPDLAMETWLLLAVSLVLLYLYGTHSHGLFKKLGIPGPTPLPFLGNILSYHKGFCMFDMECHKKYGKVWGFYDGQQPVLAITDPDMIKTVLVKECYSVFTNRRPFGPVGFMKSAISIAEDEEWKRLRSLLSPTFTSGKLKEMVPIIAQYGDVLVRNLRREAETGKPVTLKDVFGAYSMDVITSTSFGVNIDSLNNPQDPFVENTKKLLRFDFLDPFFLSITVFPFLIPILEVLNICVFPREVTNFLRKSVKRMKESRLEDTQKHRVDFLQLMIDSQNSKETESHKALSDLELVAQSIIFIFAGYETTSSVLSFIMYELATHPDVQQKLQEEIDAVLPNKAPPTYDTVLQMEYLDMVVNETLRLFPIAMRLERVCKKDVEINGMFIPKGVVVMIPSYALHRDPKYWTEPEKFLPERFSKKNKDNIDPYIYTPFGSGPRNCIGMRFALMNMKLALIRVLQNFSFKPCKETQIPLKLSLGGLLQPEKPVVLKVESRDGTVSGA

SMILES	solubility in water [1]	solubility in water [2]	food-effect ([3]; depending on fat content of the meal)	administered drug excreted ([3]; oral, low bioavailability from poor absorption) [%]	CYP3A4 substrate (CYP3A4 liver enzyme)
C[C@]12CC[C@H](OC(=O)C(=O)O)CC1=CC[C@@H]1[C@@H]2CC[C@]2(C)C(c3cccnc3)=CC[C@@H]12 [ABOA, 2-(((3S,8R,9S,10R,13S,14S)-10,13-dimethyl-17-(pyridin-3-yl)-2,3,4,7,8,9,10,11,12,13,14,15-dodecahydro-1H-cyclopenta[a]phenanthren-3-yl)oxy)-2-oxoacetic acid]	practically insoluble in water	–	–	–	–
CC(=O)O[C@H]1CC[C@@]2(C)C(=CC[C@@H]3[C@@H]2CC[C@]2(C)C(c4cccnc4)=CC[C@@H]32)C1 [abiraterone acetate]	–	practically insoluble in water	five- to ten-fold	77	substrate of the CYP3A4 liver enzyme
